What all share (experiment): Cysteine liganding, probe competition
Holding throughout (format): binding

The target of assay [1] is T1, RING1 E3 ubiquitin-protein ligase RING1 (Homo sapiens, UniProt Q06587).
T1 construct: Cells were resuspended in cold PBS on ice and sonicated with a probe sonicator to achieve lysis; endogenous in cells
T1 sequence (Q06587 1-406): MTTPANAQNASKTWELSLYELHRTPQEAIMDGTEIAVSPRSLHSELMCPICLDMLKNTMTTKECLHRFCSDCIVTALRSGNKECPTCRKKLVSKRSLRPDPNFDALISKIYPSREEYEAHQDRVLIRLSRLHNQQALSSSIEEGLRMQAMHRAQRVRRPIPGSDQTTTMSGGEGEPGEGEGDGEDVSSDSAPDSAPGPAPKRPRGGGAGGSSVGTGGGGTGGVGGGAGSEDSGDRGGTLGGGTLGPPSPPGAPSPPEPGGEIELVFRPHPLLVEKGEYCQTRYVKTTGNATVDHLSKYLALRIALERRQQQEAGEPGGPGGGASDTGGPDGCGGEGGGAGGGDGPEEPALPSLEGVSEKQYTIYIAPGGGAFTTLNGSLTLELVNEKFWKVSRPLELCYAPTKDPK
In short, it runs like this: (§1)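 Probe competition in native proteome: 5 mg/ml lysate, compound 1 hr 25° C, then desthiobiotin iodoacetamide (10 mM stock) 1 hr 25° C; acetone ppt, urea/DTT reduction, iodoacetamide alkylation, trypsin, streptavidin pull-down.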

Assay [2] deals with T2, ANKRD54 Ankyrin repeat domain-containing protein 54 (Homo sapiens, UniProt Q6NXT1).
T2 construct: 200 μL of lysate containing 5 mg/ml proteome was treated with 2 μL of 100× compound stock; endogenous in cells
T2 sequence (Q6NXT1 whole entry, the tested form may be a part): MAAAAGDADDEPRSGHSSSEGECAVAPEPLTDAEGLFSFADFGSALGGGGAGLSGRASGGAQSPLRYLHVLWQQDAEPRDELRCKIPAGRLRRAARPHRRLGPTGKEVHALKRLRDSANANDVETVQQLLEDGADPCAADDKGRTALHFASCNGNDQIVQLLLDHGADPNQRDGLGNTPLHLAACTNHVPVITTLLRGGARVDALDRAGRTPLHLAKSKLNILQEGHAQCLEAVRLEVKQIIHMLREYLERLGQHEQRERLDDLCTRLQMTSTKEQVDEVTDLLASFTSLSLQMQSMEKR
In short, it runs like this: as §1

The target of assay [3] is T3, UNC93B1 Protein unc-93 homolog B1 (Homo sapiens, UniProt Q9H1C4).
T3 construct: Cells were resuspended in cold PBS on ice and sonicated with a probe sonicator to achieve lysis; endogenous in cells
T3 sequence (Q9H1C4 1-597): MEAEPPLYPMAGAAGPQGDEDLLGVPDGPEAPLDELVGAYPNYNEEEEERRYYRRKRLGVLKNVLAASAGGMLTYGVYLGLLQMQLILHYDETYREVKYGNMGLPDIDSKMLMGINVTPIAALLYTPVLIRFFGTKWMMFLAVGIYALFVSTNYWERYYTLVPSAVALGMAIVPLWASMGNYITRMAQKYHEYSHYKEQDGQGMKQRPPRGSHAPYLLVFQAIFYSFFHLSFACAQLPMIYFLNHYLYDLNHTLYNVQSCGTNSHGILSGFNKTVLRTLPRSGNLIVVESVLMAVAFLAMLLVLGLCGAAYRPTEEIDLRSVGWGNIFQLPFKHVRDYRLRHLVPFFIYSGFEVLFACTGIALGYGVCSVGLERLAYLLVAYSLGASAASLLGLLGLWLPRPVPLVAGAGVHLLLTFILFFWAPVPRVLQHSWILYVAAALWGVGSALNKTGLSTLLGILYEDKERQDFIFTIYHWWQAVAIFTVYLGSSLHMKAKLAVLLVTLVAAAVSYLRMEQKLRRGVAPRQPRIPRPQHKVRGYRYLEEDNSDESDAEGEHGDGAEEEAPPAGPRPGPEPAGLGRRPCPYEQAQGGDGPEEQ
A digest of the protocol:
as §1

For assay [4], the target named is T4, ANAPC7 Anaphase-promoting complex subunit 7 (Homo sapiens, UniProt Q9UJX3).
T4 construct: Cells were resuspended in cold PBS on ice and sonicated with a probe sonicator to achieve lysis; endogenous in cells
T4 sequence (Q9UJX3 whole entry, one chain of several): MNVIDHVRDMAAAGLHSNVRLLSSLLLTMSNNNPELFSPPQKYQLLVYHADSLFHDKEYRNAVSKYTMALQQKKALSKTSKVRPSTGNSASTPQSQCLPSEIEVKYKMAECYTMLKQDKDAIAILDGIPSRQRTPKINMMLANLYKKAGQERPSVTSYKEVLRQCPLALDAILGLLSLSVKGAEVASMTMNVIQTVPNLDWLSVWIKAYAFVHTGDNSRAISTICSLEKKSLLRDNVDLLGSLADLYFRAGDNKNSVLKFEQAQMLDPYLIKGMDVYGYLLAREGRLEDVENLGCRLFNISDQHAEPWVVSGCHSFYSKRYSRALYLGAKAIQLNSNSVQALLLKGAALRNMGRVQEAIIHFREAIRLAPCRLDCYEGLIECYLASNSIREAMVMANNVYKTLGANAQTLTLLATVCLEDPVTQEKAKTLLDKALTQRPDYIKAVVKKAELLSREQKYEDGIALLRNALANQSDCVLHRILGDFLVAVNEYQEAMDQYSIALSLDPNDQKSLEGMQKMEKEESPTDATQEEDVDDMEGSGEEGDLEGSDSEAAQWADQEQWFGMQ
A digest of the protocol:
as §1

Assay [5] deals with T5, UBR5 E3 ubiquitin-protein ligase UBR5 (Homo sapiens, UniProt O95071).
T5 construct: Cells were resuspended in cold PBS on ice and sonicated with a probe sonicator to achieve lysis; endogenous in cells
T5 sequence (O95071 whole entry): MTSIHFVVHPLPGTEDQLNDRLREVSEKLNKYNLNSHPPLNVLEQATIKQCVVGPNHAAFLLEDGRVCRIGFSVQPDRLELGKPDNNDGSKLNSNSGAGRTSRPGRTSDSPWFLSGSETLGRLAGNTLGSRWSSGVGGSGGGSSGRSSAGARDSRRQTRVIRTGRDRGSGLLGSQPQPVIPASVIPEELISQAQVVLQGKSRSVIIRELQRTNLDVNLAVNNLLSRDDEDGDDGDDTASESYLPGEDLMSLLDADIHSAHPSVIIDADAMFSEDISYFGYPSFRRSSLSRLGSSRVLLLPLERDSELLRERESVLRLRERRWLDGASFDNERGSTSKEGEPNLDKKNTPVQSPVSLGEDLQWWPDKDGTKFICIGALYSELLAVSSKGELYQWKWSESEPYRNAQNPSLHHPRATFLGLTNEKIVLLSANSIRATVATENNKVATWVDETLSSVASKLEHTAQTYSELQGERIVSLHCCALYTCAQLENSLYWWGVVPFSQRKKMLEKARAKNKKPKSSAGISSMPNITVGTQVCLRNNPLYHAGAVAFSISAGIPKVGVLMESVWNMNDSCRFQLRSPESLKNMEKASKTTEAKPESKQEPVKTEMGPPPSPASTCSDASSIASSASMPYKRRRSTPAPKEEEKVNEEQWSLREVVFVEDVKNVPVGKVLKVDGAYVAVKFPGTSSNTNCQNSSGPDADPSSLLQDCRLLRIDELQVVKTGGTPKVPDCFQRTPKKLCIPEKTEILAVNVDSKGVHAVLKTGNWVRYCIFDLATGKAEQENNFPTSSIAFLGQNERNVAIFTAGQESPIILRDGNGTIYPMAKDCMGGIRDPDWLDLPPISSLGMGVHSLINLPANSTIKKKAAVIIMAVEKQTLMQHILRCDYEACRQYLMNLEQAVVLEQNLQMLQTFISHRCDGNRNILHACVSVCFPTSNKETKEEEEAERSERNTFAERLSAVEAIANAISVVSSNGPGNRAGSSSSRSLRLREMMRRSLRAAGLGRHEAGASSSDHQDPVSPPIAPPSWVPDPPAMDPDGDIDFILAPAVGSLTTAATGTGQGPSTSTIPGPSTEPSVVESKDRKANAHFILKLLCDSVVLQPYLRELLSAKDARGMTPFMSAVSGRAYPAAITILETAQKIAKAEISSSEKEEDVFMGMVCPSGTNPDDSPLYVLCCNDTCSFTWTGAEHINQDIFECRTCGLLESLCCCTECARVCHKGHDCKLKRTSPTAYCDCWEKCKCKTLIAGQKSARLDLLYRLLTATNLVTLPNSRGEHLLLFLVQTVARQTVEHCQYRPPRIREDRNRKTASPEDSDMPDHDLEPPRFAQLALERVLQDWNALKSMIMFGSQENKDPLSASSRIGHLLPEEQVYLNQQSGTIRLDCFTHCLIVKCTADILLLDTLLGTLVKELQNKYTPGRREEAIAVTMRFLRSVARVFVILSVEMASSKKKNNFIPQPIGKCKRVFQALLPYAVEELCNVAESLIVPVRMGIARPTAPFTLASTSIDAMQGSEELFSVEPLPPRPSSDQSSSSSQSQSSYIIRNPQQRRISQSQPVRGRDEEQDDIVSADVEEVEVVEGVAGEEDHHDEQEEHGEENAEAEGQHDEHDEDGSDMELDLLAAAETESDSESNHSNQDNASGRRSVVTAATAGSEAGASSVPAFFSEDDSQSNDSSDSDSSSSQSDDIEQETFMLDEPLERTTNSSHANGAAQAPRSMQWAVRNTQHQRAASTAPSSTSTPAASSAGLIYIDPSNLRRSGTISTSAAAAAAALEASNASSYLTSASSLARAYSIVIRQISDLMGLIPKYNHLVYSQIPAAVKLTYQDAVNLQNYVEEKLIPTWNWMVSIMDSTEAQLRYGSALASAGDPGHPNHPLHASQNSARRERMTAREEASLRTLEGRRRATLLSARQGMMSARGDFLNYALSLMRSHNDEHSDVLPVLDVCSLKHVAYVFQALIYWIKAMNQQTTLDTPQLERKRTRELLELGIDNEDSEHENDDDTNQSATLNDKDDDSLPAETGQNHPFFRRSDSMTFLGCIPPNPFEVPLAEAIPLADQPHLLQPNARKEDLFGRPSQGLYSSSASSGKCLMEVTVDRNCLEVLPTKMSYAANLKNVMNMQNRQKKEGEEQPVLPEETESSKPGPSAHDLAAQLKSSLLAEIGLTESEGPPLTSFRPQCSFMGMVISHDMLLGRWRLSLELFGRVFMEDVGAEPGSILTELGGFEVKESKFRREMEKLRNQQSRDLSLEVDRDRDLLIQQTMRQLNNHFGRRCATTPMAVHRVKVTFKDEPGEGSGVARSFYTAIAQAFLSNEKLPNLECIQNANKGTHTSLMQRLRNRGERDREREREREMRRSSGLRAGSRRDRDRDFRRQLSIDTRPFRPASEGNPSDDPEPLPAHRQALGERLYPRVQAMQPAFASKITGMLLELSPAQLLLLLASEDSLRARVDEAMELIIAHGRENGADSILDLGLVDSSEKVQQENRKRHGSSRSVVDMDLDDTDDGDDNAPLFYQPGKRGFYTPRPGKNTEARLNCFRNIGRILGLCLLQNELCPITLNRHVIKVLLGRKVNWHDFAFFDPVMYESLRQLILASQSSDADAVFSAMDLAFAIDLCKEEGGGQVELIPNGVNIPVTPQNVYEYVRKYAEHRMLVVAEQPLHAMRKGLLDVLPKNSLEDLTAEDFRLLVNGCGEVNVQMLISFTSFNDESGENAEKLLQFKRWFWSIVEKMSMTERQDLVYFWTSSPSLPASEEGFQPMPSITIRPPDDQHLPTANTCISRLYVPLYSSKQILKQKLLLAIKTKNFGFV
In short, it runs like this:
as §1

Regarding `COc1ccc2c(c1)CCCN2C(=O)CCl` [KB02], the Liganded result was “YES” in assay [1] (RING1 Res# 72, uniprot Q06587); “YES” in assay [2] (ANKRD54 Res# 230, uniprot Q6NXT1); “YES” in assay [3] (UNC93B1 Res# 583, uniprot Q9H1C4); “YES” in assay [4] (ANAPC7 Res# 329, uniprot Q9UJX3); “YES” in assay [5] (UBR5 Res# 2314, uniprot O95071).
Regarding `O=C(CCl)Nc1cc(C(F)(F)F)cc(C(F)(F)F)c1` [KBO3], the Liganded entry is “YES” in assay [1] (RING1 Res# 51, uniprot Q06587) and “YES” in assay [1] (RING1 Res# 72, uniprot Q06587). For the same compound, the “100 Max” value in assay [1] (uniprot Q06587) came to 18.1; in assay [2] (uniprot Q6NXT1), 7.02; in assay [3] (uniprot Q9H1C4), 29.9385; in assay [4] (uniprot Q9UJX3) it was 60.9; in assay [5] (uniprot O95071, unit assumed), 9.2%. In addition, the 100 ave is 0.5 in assay [1] (uniprot Q06587); −0.72 in assay [2] (uniprot Q6NXT1); 13 in assay [3] (uniprot Q9H1C4); 47.5 in assay [4] (uniprot Q9UJX3); −2.4 in assay [5] (uniprot O95071). Moreover, the “500 Max” value in assay [2] (uniprot Q6NXT1) was found to be 45.29; in assay [3] (uniprot Q9H1C4, in % (unit assumed)) it was 72.3195; in assay [4] (uniprot Q9UJX3), 73.4; in assay [5] (uniprot O95071), 33.0. The 500 ave is 44.21 in assay [2] (uniprot Q6NXT1), 70.38 in assay [3] (uniprot Q9H1C4), 68.4 in assay [4] (uniprot Q9UJX3) and 26.8 in assay [5] (uniprot O95071).

The record behind these values is patent US20200239530A1, “COMPOUNDS AND METHODS OF MODULATING PROTEIN DEGRADATION” (Vividion Therapeutics, Inc., priority 2017, published 2020).
